According to the supplement of paper PMC10307832:

What was measured:
Assay in all cases: relative viability (nuclei count vs DMSO), 5 days (fraction); higher = more cells survive
[1] = compound: O[C@H]1CC[C@H](Nc2ncc3nc(Nc4c(F)cc(F)cc4F)n([C@H]4CCOC4)c3n2)CC1 [Tanzisertib] + Nc1ncn([C@H]2C[C@H](O)[C@@H](CO)O2)c(=O)n1 [Decitabine] (partner 2 µM)
In short: (§1)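 Lung cancer cell lines were seeded in 1536-well plates and dosed by pin tool the next day, with either a single drug or a fixed anchor-drug dose combined with five library-drug doses (not always all listed) spaced in √10 steps. Five days later, one step fixed the cells and stained their nuclei (final 0.05% Triton X-100, 1% formaldehyde, 1 ug/ml Hoechst), and nuclei were counted on 4× images. Relative viability is the nuclei count in treated wells divided by the count in vehicle wells, and each value is the median of duplicate plates.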

[2] = compound: C[C@@H](N)c1ccc(C(=O)Nc2ccnc3[nH]ccc23)cc1 + O=C(c1cc(Cc2n[nH]c(=O)c3ccccc23)ccc1F)N1CCN(C(=O)C2CC2)CC1 [Olaparib] (partner 8 µM)
In short: as §1

[3] = compound: O[C@H]1CC[C@H](Nc2ncc3nc(Nc4c(F)cc(F)cc4F)n([C@H]4CCOC4)c3n2)CC1 [Tanzisertib] + CS(=O)(=O)CCNCc1ccc(-c2ccc3ncnc(Nc4ccc(OCc5cccc(F)c5)c(Cl)c4)c3c2)o1 [Lapatinib] (partner 2 µM)
In short: as §1

[4] = compound: C[C@@H](N)c1ccc(C(=O)Nc2ccnc3[nH]ccc23)cc1 + CCNC(=O)c1noc(-c2cc(C(C)C)c(O)cc2O)c1-c1ccc(CN2CCOCC2)cc1 [Luminespib] (partner 0.01 µM)
In short: as §1

Row | Cell Line | relative viability ([1]; first compound 0.08 µM) | relative viability ([1]; first compound 0.253 µM) | relative viability ([1]; first compound 0.8 µM) | relative viability ([1]; first compound 2.53 µM) | relative viability ([1]; first compound 8 µM) | relative viability ([2]; first compound 0.04 µM) | relative viability ([2]; first compound 0.1265 µM) | relative viability ([2]; first compound 0.4 µM) | relative viability ([2]; first compound 1.265 µM) | relative viability ([2]; first compound 4 µM) | relative viability ([3]; first compound 0.08 µM) | relative viability ([3]; first compound 0.253 µM) | relative viability ([3]; first compound 0.8 µM) | relative viability ([3]; first compound 2.53 µM) | relative viability ([3]; first compound 8 µM) | relative viability ([4]; first compound 0.04 µM) | relative viability ([4]; first compound 0.1265 µM) | relative viability ([4]; first compound 0.4 µM) | relative viability ([4]; first compound 1.265 µM) | relative viability ([4]; first compound 4 µM)
1 | 201T | 0.862 | 0.902 | 0.853 | 0.857 | 0.85 | 0.867 | 0.883 | 0.818 | 0.895 | 0.949 | 1.04 | 1.02 | 0.997 | 1.02 | 1.07 | 1.02 | 1.02 | 1.08 | 1.14 | 1.14
2 | A549 | 0.246 | 0.25 | 0.277 | 0.267 | 0.127 | 0.303 | 0.251 | 0.575 | 0.0626 | 0.465 | 1.04 | 0.92 | 0.921 | 1.05 | 1.07 | – | – | – | – | –
3 | A-427 | 0.58 | 0.567 | 0.569 | 0.537 | 0.631 | 0.698 | 0.817 | 0.762 | 0.589 | 0.649 | 1.19 | 1.18 | 1.04 | 1.04 | 1.12 | 0.79 | 0.898 | 0.976 | – | 0.804
4 | ABC-1 | 1.03 | 0.958 | 0.976 | 1.18 | 0.836 | 0.511 | 0.752 | 0.942 | 0.953 | 0.693 | 1.17 | 1 | – | 1.36 | 1.41 | 1 | 0.678 | 0.529 | 0.553 | 0.811
5 | BEN | 0.707 | 0.766 | 0.782 | 0.702 | 0.57 | 1.04 | 1.08 | 1.11 | 1.27 | 0.542 | 0.773 | 0.806 | 0.721 | 0.795 | 0.712 | 0.369 | 0.332 | 0.44 | 0.29 | 0.286
6 | CAL-12T | – | – | – | – | – | 0.702 | 0.882 | 0.815 | 0.841 | 0.724 | 0.635 | 0.617 | 0.795 | 0.762 | 0.72 | 0.297 | 0.421 | 0.322 | 0.432 | 0.22
7 | COR-L23 | 0.454 | 0.502 | 0.411 | 0.511 | 0.467 | 0.296 | 0.341 | 0.322 | 0.277 | 0.176 | 1.12 | 0.954 | 0.961 | 1.07 | 0.98 | 0.788 | 0.804 | 0.644 | 0.437 | 0.161
8 | COR-L 105 | 0.697 | 0.659 | 0.643 | 0.751 | 0.538 | 0.605 | 0.636 | 0.763 | 0.717 | 0.564 | 0.379 | 0.355 | 0.353 | 0.332 | 0.275 | 0.733 | 0.635 | 0.596 | 0.559 | 0.346
9 | Calu-6 | – | – | – | – | – | 0.602 | 0.592 | 0.547 | 0.533 | 0.45 | 1.14 | 1.11 | 1.07 | 1.05 | 1 | – | – | – | – | –
10 | ChaGo-K-1 | 0.519 | 0.531 | 0.493 | 0.512 | 0.537 | 0.418 | 0.426 | 0.414 | 0.438 | 0.345 | – | – | – | – | – | 0.554 | 0.641 | 0.629 | 0.562 | 0.436
11 | EBC-1 | – | – | – | – | – | 0.847 | 0.713 | 0.678 | 0.683 | 0.583 | 0.216 | 0.213 | 0.204 | 0.189 | 0.178 | – | – | – | – | –
12 | EKVX | 0.371 | 0.356 | 0.41 | 0.323 | 0.324 | 0.993 | 1.14 | 1.03 | 0.923 | 0.727 | 0.161 | 0.186 | 0.208 | 0.394 | 0.197 | 0.943 | 0.987 | 1.08 | 0.879 | 0.942
13 | EMC-BAC-2 | 1.05 | 0.947 | 0.957 | 0.96 | 0.937 | – | 0.516 | 0.477 | 0.505 | 0.425 | 1.03 | 0.923 | 0.931 | 0.867 | 0.841 | 1.15 | 1.22 | 1.25 | 1.09 | 1.04
14 | EPLC-272H | 0.43 | 0.366 | 0.43 | 0.381 | 0.353 | 0.729 | 1.17 | 0.808 | 0.703 | 0.394 | 0.929 | 1.06 | 0.955 | 1.22 | 1.03 | 0.402 | 0.602 | 0.188 | 0.491 | 0.405
15 | H3255 | 0.799 | 0.598 | 0.647 | 0.482 | 0.448 | 0.533 | 0.607 | 0.606 | 0.558 | 0.48 | 0.231 | 0.29 | 0.256 | 0.256 | 0.205 | 0.778 | 1.04 | 1 | 0.763 | 0.944
16 | HARA | 0.602 | 0.579 | 0.504 | 0.566 | 0.539 | 1.02 | 0.907 | 1.32 | 0.966 | 0.819 | 0.889 | 0.809 | 0.81 | 0.797 | 0.771 | – | 0.738 | 0.675 | – | 0.608
17 | HCC-15 | 0.66 | 0.674 | 0.737 | 0.659 | 0.647 | 0.744 | 0.731 | 0.726 | 0.693 | 0.743 | 0.974 | 0.854 | 0.888 | 0.916 | 0.659 | 0.391 | 0.329 | 0.291 | – | 0.153
18 | HCC-44 | 0.94 | 0.978 | 0.998 | 0.975 | 0.955 | 0.949 | 0.966 | 0.966 | 1.05 | 0.889 | 1.07 | 1.16 | 1.12 | 1.1 | 1.25 | 0.922 | 1.11 | 1.31 | 1.21 | 0.486
